Earlier results as cited in patent US7705031B2 (priority 2003, dated 2010).

Key:
[1] = molecular target: NaV1.3 (Homo sapiens, UniProt Q9NY46); details: read-out: TTX IC50
[2] = test system: neuropathic pain; details: human, in vivo

Sequence of NaV1.3 (Q9NY46 whole entry, looked up): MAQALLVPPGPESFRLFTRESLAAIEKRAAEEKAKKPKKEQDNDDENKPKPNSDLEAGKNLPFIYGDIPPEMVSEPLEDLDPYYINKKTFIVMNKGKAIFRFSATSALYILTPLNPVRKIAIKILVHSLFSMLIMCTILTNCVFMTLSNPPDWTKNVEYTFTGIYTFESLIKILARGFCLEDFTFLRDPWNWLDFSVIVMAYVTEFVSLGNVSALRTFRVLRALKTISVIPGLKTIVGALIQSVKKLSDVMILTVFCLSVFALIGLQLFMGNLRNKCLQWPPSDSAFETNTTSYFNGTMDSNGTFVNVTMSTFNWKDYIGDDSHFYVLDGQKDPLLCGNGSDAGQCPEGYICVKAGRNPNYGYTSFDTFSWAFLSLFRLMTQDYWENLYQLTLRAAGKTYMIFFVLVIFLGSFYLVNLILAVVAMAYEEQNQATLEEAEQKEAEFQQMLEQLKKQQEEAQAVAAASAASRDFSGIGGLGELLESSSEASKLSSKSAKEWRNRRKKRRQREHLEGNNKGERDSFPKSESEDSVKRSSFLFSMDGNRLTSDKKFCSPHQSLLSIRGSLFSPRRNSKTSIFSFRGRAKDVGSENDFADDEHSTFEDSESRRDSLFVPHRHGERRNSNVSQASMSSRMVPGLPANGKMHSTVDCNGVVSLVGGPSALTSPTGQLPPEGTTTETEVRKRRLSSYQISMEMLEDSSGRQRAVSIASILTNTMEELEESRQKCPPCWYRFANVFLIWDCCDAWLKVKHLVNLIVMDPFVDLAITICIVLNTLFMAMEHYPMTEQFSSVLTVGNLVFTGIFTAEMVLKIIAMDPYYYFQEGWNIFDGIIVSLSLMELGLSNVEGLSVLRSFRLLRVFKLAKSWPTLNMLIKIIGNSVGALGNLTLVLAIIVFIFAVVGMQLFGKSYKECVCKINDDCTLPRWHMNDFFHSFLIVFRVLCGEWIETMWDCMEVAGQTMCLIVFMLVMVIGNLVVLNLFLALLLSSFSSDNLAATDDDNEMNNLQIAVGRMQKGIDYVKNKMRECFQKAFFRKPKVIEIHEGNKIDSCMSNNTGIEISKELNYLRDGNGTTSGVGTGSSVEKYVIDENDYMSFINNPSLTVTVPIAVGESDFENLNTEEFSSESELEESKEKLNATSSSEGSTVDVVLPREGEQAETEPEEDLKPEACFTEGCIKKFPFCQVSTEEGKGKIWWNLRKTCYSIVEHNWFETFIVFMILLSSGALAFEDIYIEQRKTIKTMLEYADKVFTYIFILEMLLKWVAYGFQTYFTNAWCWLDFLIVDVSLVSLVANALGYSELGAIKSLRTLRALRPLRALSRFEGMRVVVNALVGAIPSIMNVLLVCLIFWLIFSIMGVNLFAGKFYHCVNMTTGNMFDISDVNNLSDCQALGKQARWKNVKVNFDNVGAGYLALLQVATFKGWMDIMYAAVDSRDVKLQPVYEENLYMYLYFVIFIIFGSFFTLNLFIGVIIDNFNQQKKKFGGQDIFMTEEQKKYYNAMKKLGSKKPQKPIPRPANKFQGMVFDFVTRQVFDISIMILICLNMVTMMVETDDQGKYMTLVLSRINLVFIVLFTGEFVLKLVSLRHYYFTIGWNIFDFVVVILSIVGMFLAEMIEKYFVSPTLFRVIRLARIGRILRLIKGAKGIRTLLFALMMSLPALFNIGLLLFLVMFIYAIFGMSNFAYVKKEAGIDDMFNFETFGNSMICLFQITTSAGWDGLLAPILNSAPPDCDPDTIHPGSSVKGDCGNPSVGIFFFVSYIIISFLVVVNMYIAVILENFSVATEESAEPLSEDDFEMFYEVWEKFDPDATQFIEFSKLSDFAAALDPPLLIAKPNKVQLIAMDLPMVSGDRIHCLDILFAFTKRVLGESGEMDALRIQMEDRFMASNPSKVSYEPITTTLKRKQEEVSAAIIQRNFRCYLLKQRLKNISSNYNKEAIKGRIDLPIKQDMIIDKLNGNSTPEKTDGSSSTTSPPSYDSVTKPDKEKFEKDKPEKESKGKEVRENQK

Compound	IC50 [1]	share of patients in whom the drug works [2]
NC1=N[C@H](O)[C@H]2[C@H]3O[C@]4(O)O[C@@H]([C@@H](O)[C@@]2(N1)[C@@H]4O)[C@]3(O)CO [TTX, tetrodotoxin]	15 nM	–
NCC1(CC(=O)O)CCCCC1 [Gabapentin]	–	60%
